The source of these data is PubChem BioAssay AID330 (DTP/NCI, 2004).

The structures appear in SMILES notation. Values joined by “and” are separate entries in the source; they are usually repeats but may differ in a detail not shown here. Equal entries are not always repeated. Toxic doses and inconclusive results are not listed.

This test deals with P388 leukemia ip, CD2F1 mice, survival T/C. Put plainly: NCI In Vivo Anticancer Drug Screen. Data for tumor model P388 Leukemia (intraperitoneal) in CD2F1 (CDF1) mice. As to conditions: endpoint: median survival time, higher = longer survival. In outline: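 Mice carrying the transplanted tumor received test compound or vehicle. Survival was recorded in each group, and the value is the treated-group measurement divided by that of the vehicle-treated control group.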

Where [1] appears, read: dose: 100.0 mg/kg/injection, schedule: Q01DX001 (ip), vehicle: Klucel (hydroxypropylcellulose) (HPC).
[2] abbreviates: dose: 200.0 mg/kg/injection, schedule: Q01DX001 (ip), vehicle: Klucel (hydroxypropylcellulose) (HPC).
Where [3] appears, read: dose: 400.0 mg/kg/injection, schedule: Q01DX001 (ip), vehicle: Klucel (hydroxypropylcellulose) (HPC).
[4] abbreviates: dose: 60.0 mg/kg/injection, schedule: Q01DX005 (ip), vehicle: Klucel (hydroxypropylcellulose) (HPC).
Where [5] appears, read: dose: 120.0 mg/kg/injection, schedule: Q01DX005 (ip), vehicle: Klucel (hydroxypropylcellulose) (HPC).
[6] abbreviates: dose: 240.0 mg/kg/injection, schedule: Q01DX005 (ip), vehicle: Klucel (hydroxypropylcellulose) (HPC).
Setting [7] is: dose: 50.0 mg/kg/injection, schedule: Q01DX005 (ip), vehicle: saline with Tween-80.
Where [8] appears, read: dose: 100.0 mg/kg/injection, schedule: Q01DX005 (ip), vehicle: saline with Tween-80.
Where [9] appears, read: dose: 200.0 mg/kg/injection, schedule: Q01DX005 (ip), vehicle: saline with Tween-80.
The mark [10] stands for this setting: dose: 50.0 mg/kg/injection, schedule: Q01DX009 (ip), vehicle: Klucel (hydroxypropylcellulose) (HPC).
[11] abbreviates: dose: 100.0 mg/kg/injection, schedule: Q01DX009 (ip), vehicle: Klucel (hydroxypropylcellulose) (HPC).
Setting [12] is: dose: 200.0 mg/kg/injection, schedule: Q01DX009 (ip), vehicle: Klucel (hydroxypropylcellulose) (HPC).

Regarding `NC(=S)N/N=C/c1c(Br)nc2sccn12`, the T/C is 97 % of control under setting [1], 89 % of control under setting [2] and 89 % of control under setting [3].
On to `CN1CCN(C(=O)Nc2ccc(N=Nc3ccccc3)cc2)CC1`, for which the T/C was 105 % of control (dose: 12.5 mg/kg/injection, schedule: Q01DX009 (ip), vehicle: saline sonified) and 100 % of control (dose: 25.0 mg/kg/injection, schedule: Q01DX009 (ip), vehicle: saline sonified).
In the case of `NC1CCNC(O)[N-]1.NC1CCNC(O)[N-]1.[Br][Pd][Br]` (stereo not drawn), the T/C is 99 % of control under setting [4], 100 % of control under setting [5] and 102 % of control under setting [6].
For the molecule `O=C1NC(=O)C2(O)NC(=O)NC2(O)N1` (stereo not drawn), the T/C (dose: 25.0 mg/kg/injection, schedule: Q01DX005 (ip), vehicle: saline) is 100 % of control; the T/C (dose: 50.0 mg/kg/injection, schedule: Q01DX005 (ip), vehicle: saline) was 106 % of control; the T/C (dose: 100.0 mg/kg/injection, schedule: Q01DX005 (ip), vehicle: saline) is 101 % of control; the T/C (dose: 200.0 mg/kg/injection, schedule: Q01DX005 (ip), vehicle: saline) was 116 % of control; the T/C (dose: 400.0 mg/kg/injection, schedule: Q01DX005 (ip), vehicle: saline) is 116 % of control.
For `CN(C)CCO[Si](C)(C)C[Si](C)(C)OCCN(C)C`, the T/C reads like this: (dose: 60.0 mg/kg/injection, schedule: Q01DX005 (ip), vehicle: saline) 107 % of control; (dose: 120.0 mg/kg/injection, schedule: Q01DX005 (ip), vehicle: saline) 102 % of control; (dose: 240.0 mg/kg/injection, schedule: Q01DX005 (ip), vehicle: saline) 108 % of control.
Take `C[N+](C)(C)CCC(=O)c1ccc([N+](=O)[O-])cc1`: the T/C by setting is: (dose: 50.0 mg/kg/injection, schedule: Q01DX009 (ip), vehicle: saline) 109 % of control; (dose: 100.0 mg/kg/injection, schedule: Q01DX009 (ip), vehicle: saline) 118 % of control.
Turning to `CSc1nsc(SC)c1C(N)=O`, the T/C is, setting by setting: under setting [4], 99 % of control; under setting [5], 98 % of control; under setting [6], 105 % of control.
As for `COC(=O)C1CCC(c2ccccc2)(c2ccccc2)C1=O.COC(=O)C1CCC(c2ccccc2)(c2ccccc2)C1=O.[Cu]` (stereo not drawn), the T/C reads like this: under setting [1], 100 % of control; under setting [2], 100 % of control; under setting [3], 102 % of control.
As for `Cc1cc2cc(C)c3c(Cl)nnc(Cl)c3c2o1`, the T/C was 106 % of control under setting [7], 103 % of control under setting [8] and 100 % of control under setting [9].
In the same order, the values of `COc1ccc2cc(Cl)c3ccccc3c2c1` are 87 % of control, 90 % of control and 86 % of control.
For the molecule `O=NNc1ccc(SSc2ccc(NN=O)cc2)cc1`, the T/C is, setting by setting: (dose: 1.56 mg/kg/injection, schedule: Q01DX009 (ip), vehicle: water) 106 % of control; (dose: 3.12 mg/kg/injection, schedule: Q01DX009 (ip), vehicle: water) 100 % of control and 124 % of control; (dose: 6.25 mg/kg/injection, schedule: Q01DX009 (ip), vehicle: water) 121 % of control; (dose: 12.5 mg/kg/injection, schedule: Q01DX009 (ip), vehicle: water) 123 % of control.
In the case of `COC(=O)/C(=N\NS(=O)(=O)c1ccc(C)cc1)c1ccccc1`, the T/C (dose: 12.5 mg/kg/injection, schedule: Q01DX009 (ip), vehicle: Klucel (hydroxypropylcellulose) (HPC)) was 99 % of control; the T/C (dose: 25.0 mg/kg/injection, schedule: Q01DX009 (ip), vehicle: Klucel (hydroxypropylcellulose) (HPC)) was 105 % of control; the T/C under setting [10] was 99 % of control; the T/C under setting [11] is 98 % of control; the T/C under setting [12] was 90 % of control.
As for `COc1cccc2c1C(=O)c1c(O)c3c(c(O)c1C2=O)C[C@@](O)(/C(CO)=N/NC(=O)c1ccc(Cl)c(Cl)c1)C[C@@H]3OC1CC(N)C(O)C(C)O1` (stereo partly drawn), the T/C is 116 % of control (dose: 0.12 mg/kg/injection, schedule: Q01DX009 (ip), vehicle: water); 153 % of control and 172 % of control (dose: 1.0 mg/kg/injection, schedule: Q01DX009 (ip), vehicle: water); 108 % of control (dose: 1.56 mg/kg/injection, schedule: Q04DX003 (ip), vehicle: water); 154 % of control and 176 % of control (dose: 2.0 mg/kg/injection, schedule: Q01DX009 (ip), vehicle: water); 99 % of control and 105 % of control and 118 % of control (dose: 2.0 mg/kg/injection, schedule: Q04DX003 (ip), vehicle: saline); 104 % of control and 121 % of control (dose: 3.13 mg/kg/injection, schedule: Q04DX003 (ip), vehicle: water). Also, the T/C is 202 % of control and 205 % of control (dose: 4.0 mg/kg/injection, schedule: Q01DX009 (ip), vehicle: water); 108 % of control and 116 % of control (dose: 4.0 mg/kg/injection, schedule: Q04DX003 (ip), vehicle: saline); 155 % of control (dose: 6.25 mg/kg/injection, schedule: Q04DX003 (ip), vehicle: water); 109 % of control and 241 % of control (dose: 8.0 mg/kg/injection, schedule: Q01DX009 (ip), vehicle: water); 166 % of control and 167 % of control (dose: 25.0 mg/kg/injection, schedule: Q04DX003 (ip), vehicle: water); 124 % of control (dose: 100.0 mg/kg/injection, schedule: Q04DX003 (ip), vehicle: water). Moreover, the T/C (dose: 512.0 mg/kg/injection, schedule: Q04DX003 (ip), vehicle: saline) was 99 % of control and the T/C (dose: 1024.0 mg/kg/injection, schedule: Q04DX003 (ip), vehicle: saline) was 90 % of control.
Regarding `COc1cccc2c1cc([N+](=O)[O-])c1c(C(=O)O)cc3c(c12)OCO3`, the T/C is 118 % of control (dose: 2.5 mg/kg/injection, schedule: Q01DX009 (ip), vehicle: Klucel (hydroxypropylcellulose) (HPC)); 108 % of control (dose: 2.5 mg/kg/injection, schedule: Q01DX009 (ip), vehicle: saline); 118 % of control (dose: 5.0 mg/kg/injection, schedule: Q01DX009 (ip), vehicle: Klucel (hydroxypropylcellulose) (HPC)); 117 % of control (dose: 5.0 mg/kg/injection, schedule: Q01DX009 (ip), vehicle: saline); 117 % of control (dose: 10.0 mg/kg/injection, schedule: Q01DX009 (ip), vehicle: saline).
As for `Nc1n[nH]c(-c2ccccc2)n1`, the T/C is, setting by setting: (dose: 50.0 mg/kg/injection, schedule: Q01DX009 (ip), vehicle: saline with Tween-80) 117 % of control; (dose: 100.0 mg/kg/injection, schedule: Q01DX009 (ip), vehicle: saline with Tween-80) 101 % of control.
For the molecule `O=S(=O)(Cc1ccccc1)CS(=O)(=O)Cc1ccccc1`, the T/C reads like this: under setting [10], 104 % of control; under setting [11], 106 % of control; under setting [12], 103 % of control; (dose: 400.0 mg/kg/injection, schedule: Q01DX009 (ip), vehicle: Klucel (hydroxypropylcellulose) (HPC)) 101 % of control.
For `CC1(c2ccccc2)NC(=O)NC1=O` (stereo not drawn), the T/C is, setting by setting: (dose: 50.0 mg/kg/injection, schedule: Q01DX001 (ip), vehicle: saline) 100 % of control; (dose: 100.0 mg/kg/injection, schedule: Q01DX001 (ip), vehicle: saline) 110 % of control; (dose: 200.0 mg/kg/injection, schedule: Q01DX001 (ip), vehicle: saline) 115 % of control.
On to `COc1ccc(/C=C/c2ccc3ccccc3[n+]2C)cc1Br`, for which the T/C is, setting by setting: (dose: 12.5 mg/kg/injection, schedule: Q01DX005 (ip), vehicle: Klucel (hydroxypropylcellulose) (HPC)) 113 % of control; (dose: 25.0 mg/kg/injection, schedule: Q01DX005 (ip), vehicle: Klucel (hydroxypropylcellulose) (HPC)) 113 % of control; (dose: 50.0 mg/kg/injection, schedule: Q01DX005 (ip), vehicle: Klucel (hydroxypropylcellulose) (HPC)) 113 % of control and 119 % of control.
As for `NC(C(=O)O)C(O)c1ccc2c(c1)OCO2` (stereo not drawn), the T/C (dose: 100.0 mg/kg/injection, schedule: Q04DX003 (ip), vehicle: saline with Tween-80) is 100 % of control; the T/C (dose: 200.0 mg/kg/injection, schedule: Q04DX003 (ip), vehicle: saline with Tween-80) was 100 % of control; the T/C (dose: 400.0 mg/kg/injection, schedule: Q04DX003 (ip), vehicle: saline with Tween-80) is 100 % of control.
